Results published in ChEMBL document CHEMBL5338718, “Design and exploration of gut-restricted bifunctional molecule with TGR5 agonistic and DPP4 inhibitory effects for treating ulcerative colitis” (Eur J Med Chem, 2022).
Calls of active or inactive are those of the source. No cut-off for these calls is given here.

Tests used:
Mus musculus [1] = assay: Anti-colitis activity against DSS-induced ulcerative colitis BALB/c mouse model assessed as reduction in body weight loss by measuring DAI score at 30 mg/kg,po and measured after 5 to 10 days; assay type: functional, organism-based; details: time 5-10 day
Mus musculus [2] = assay: Anti-colitis activity against DSS-induced ulcerative colitis BALB/c mouse model assessed as recovery of colon length at 30 mg/kg,po for 10 days; assay type: functional, organism-based; details: time 10.0 day
Mus musculus [3] = assay: Anti-colitis activity against DSS-induced ulcerative colitis BALB/c mouse model assessed as suppression of DSS induced diarrhea at 30 mg/kg,po for 10 days; assay type: functional, organism-based; details: time 10.0 day
[4] = Cmax in overnight-fasted ICR mouse Gall bladder at 30 mg/kg, po and measured upto 8 hrs by LC-MS/MS analysis; assay type: ADME, organism-based; design: dose 30 mg/kg, time < 8 hrs, route po
[5] = Water solubility at pH 7.4; assay type: physicochemical
[6] = target: T1, G-protein coupled bile acid receptor 1 (Homo sapiens, UniProt Q8TDU6); assay: Agonist activity at human TGR5 expressed in human HEK293 cells co-expressing CRE-driven luciferase reporter gene assessed as luciferase activity incubated for 5.5 hrs by Steady-Glo based luciferase assay; assay type: functional, cell-based
T1 sequence (Q8TDU6 whole entry): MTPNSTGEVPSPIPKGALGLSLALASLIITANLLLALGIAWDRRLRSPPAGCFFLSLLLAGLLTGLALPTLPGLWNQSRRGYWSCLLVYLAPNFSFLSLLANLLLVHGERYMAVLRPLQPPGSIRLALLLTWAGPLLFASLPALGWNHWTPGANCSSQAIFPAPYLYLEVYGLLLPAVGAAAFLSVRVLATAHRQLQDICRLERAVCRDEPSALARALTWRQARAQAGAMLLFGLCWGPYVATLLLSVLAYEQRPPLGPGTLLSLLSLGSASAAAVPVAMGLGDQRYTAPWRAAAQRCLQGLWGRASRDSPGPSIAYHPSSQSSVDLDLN

[7] = target: T2, G-protein coupled bile acid receptor 1 (Mus musculus, UniProt Q80SS6); assay: Agonist activity at mouse TGR5 expressed in human HEK293 cells co-expressing CRE-driven luciferase reporter gene assessed as luciferase activity incubated for 5.5 hrs by Steady-Glo based luciferase assay; assay type: functional, cell-based
T2 sequence (Q80SS6 whole entry): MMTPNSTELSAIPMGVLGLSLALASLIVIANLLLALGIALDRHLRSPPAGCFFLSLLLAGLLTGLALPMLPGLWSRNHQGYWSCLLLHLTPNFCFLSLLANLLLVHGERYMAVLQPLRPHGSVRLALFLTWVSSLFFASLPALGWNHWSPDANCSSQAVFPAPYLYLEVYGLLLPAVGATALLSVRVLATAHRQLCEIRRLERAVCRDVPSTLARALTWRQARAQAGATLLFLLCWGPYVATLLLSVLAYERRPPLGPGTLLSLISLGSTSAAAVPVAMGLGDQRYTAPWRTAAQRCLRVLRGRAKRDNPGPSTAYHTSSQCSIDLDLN

Mus musculus [8] = assay: Anti-colitis activity against DSS-induced ulcerative colitis BALB/c mouse model assessed as reduction in stool softness by measuring DAI score at 30 mg/kg,po and measured after 5 to 10 days; assay type: functional, organism-based; details: time 5-10 day
Mus musculus [9] = assay: In vivo inhibition of DDP4 in ICR mouse assessed as decrease in enzyme activity in serum at 200 mg/kg,po and measured after 8 hrs using Gly-Pro-AMC as substrate by fluorescence based microplate reader assay; assay type: functional, organism-based
Mus musculus [10] = assay: Anti-colitis activity against DSS-induced ulcerative colitis BALB/c mouse model assessed as reduction in fecal occult blood by measuring DAI score at 30 mg/kg,po and measured after 5 to 10 days; assay type: functional, organism-based; details: time 5-10 day
[11] = Apparent permeability across basolateral to apical side in human Caco-2 cells at 20 uM and measured upto 95 mins by LC-MS/MS analysis; assay type: ADME, cell-based
Mus musculus [12] = assay: In vivo agonist activity at TGR5 in overnight fasted ICR mouse assessed as increase in GLP-1 activity in serum at 100 mg/kg,po preincubated with sitagliptin at 30 mg/kg,po for one hr followed by compound addition and measured after 8 hrs by ELISA; assay type: functional, organism-based
Mus musculus [13] = assay: Induction of gut restriction in overnight fasted ICR mouse assessed as effect on gallbladder-filling by measuring bile weight at 30 to 200 mg/kg, po and measured after 4 hrs by Vernier caliper analysis; assay type: functional, organism-based; details: dose 30-200 mg/kg
Mus musculus [14] = assay: Anti-colitis activity against DSS-induced ulcerative colitis BALB/c mouse model assessed as decrease in histological score at 30 mg/kg,po for 10 days by Hematoxylin and eosin staining based microscopy; assay type: functional, organism-based; details: time 10.0 day
[15] = Cmax in overnight-fasted ICR mouse plasma at 30 mg/kg, po and measured upto 8 hrs by LC-MS/MS analysis; assay type: ADME, organism-based; design: dose 30 mg/kg, time < 8 hrs, route po
Mus musculus [16] = assay: In vivo inhibition of DDP4 in ICR mouse assessed as decrease in enzyme activity in serum at 200 mg/kg,po and measured at 4 hrs using Gly-Pro-AMC as substrate by fluorescence based microplate reader assay; assay type: functional, organism-based
Mus musculus [17] = assay: In vivo inhibition of DDP4 in ICR mouse assessed as decrease in enzyme activity in ileum at 200 mg/kg,po and measured after 8 hrs using Gly-Pro-AMC as substrate by fluorescence based microplate reader assay; assay type: functional, organism-based
Mus musculus [18] = assay: Anti-colitis activity against DSS-induced ulcerative colitis BALB/c mouse model assessed as decrease in inflammatory cell infiltration at 30 mg/kg,po for 10 days by Hematoxylin and eosin staining based microscopy; assay type: functional, organism-based; details: time 10.0 day
Mus musculus [19] = assay: Anti-colitis activity against DSS-induced ulcerative colitis BALB/c mouse model assessed as suppression of DSS induced fecal occult blood at 30 mg/kg,po for 10 days; assay type: functional, organism-based; details: time 10.0 day
Dipeptidyl peptidase 4 = Dipeptidyl peptidase 4 (Mus musculus, UniProt P28843); assay: Inhibition of mouse serum DPP4 assessed as cleavage of substrate by measuring AMC release using Gly-Pro-AMC as substrate by fluorescence based microplate reader assay; assay type: cell-free
Dipeptidyl peptidase 4, sequence (P28843 whole entry): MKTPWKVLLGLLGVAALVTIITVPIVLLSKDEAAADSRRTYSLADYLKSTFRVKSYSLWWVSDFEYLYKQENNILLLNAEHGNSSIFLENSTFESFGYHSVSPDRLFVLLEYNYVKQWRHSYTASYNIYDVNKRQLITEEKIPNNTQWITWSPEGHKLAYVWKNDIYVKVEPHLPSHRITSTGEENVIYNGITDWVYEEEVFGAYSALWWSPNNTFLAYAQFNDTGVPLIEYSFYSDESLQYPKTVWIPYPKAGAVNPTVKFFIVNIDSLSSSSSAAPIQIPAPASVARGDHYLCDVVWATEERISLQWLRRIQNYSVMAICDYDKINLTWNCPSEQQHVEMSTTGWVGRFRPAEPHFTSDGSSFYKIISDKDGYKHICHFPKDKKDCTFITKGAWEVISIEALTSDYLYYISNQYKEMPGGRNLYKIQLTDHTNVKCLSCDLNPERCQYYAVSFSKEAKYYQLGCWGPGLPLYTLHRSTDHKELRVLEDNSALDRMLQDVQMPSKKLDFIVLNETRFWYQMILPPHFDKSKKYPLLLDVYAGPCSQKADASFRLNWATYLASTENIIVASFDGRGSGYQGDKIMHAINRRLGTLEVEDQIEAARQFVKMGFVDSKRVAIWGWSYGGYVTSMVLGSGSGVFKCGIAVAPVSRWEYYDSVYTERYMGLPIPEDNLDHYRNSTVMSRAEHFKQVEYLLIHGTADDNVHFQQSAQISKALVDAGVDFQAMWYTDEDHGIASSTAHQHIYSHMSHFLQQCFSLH

Mus musculus [20] = assay: In vivo inhibition of DDP4 in ICR mouse assessed as decrease in enzyme activity in ileum at 25 mg/kg,po and measured after 8 hrs using Gly-Pro-AMC as substrate by fluorescence based microplate reader assay; assay type: functional, organism-based
[21] = Water solubility at pH 6.8; assay type: physicochemical
Mus musculus [22] = assay: In vivo inhibition of DDP4 in ICR mouse assessed as decrease in enzyme activity in serum at 200 mg/kg,po and measured at 2 hrs using Gly-Pro-AMC as substrate by fluorescence based microplate reader assay; assay type: functional, organism-based
[23] = Cmax in overnight-fasted ICR mouse ileum at 30 mg/kg, po and measured upto 8 hrs by LC-MS/MS analysis; assay type: ADME, organism-based; design: dose 30 mg/kg, time < 8 hrs, route po
Mus musculus [24] = assay: Induction of gut restriction in overnight fasted ICR mouse assessed as effect on gallbladder-filling by measuring gallbladder volume at 30 to 200 mg/kg, po and measured after 4 hrs by Vernier caliper analysis; assay type: functional, organism-based; details: dose 30-200 mg/kg
Mus musculus [25] = assay: Anti-colitis activity against DSS-induced ulcerative colitis BALB/c mouse model assessed as suppression of DSS induced weight loss at 30 mg/kg,po for 10 days; assay type: functional, organism-based; details: time 10.0 day
[26] = Apparent permeability across apical to basolateral side in human Caco-2 cells at 20 uM and measured upto 95 mins by LC-MS/MS analysis; assay type: ADME, cell-based
Mus musculus [27] = assay: Anti-colitis activity against DSS-induced ulcerative colitis BALB/c mouse model assessed as recovery of tissue damage at 30 mg/kg,po for 10 days by Hematoxylin and eosin staining based microscopy; assay type: functional, organism-based; details: time 10.0 day
Mus musculus [28] = assay: In vivo inhibition of DDP4 in ICR mouse assessed as decrease in enzyme activity in ileum at 50 mg/kg,po and measured after 8 hrs using Gly-Pro-AMC as substrate by fluorescence based microplate reader assay; assay type: functional, organism-based

## CC1C(=O)N(CC(=O)N(CCOCCOCCOCCOCCOCCOCCOCCOCCN(CC(=O)O)C(=O)CCc2cc(Cl)c(Oc3ccsc3C(=O)N3CCN(C4CC4)c4ccccc43)cc2Cl)CC(=O)O)CCCN1C(=O)C[C@H](N)Cc1cc(F)c(F)cc1F (mixture of isomers)
Mus musculus [1]
  Activity: Active
Mus musculus [2]
  Activity: Active
Mus musculus [3]
  Activity: Active
[4]
  Cmax: 820 ng/mL
[5]
  solubility: > 100 µM
[6]
  EC50: 48.5 nM
[7]
  EC50: 3.4 nM
Mus musculus [8]
  Activity: Active
Mus musculus [9]
  inhibition: Active
Mus musculus [10]
  Activity: Active
[11]
  Papp B→A at 1.583 h, 20 µM: 0.01 ×10⁻⁶ cm/s
Mus musculus [12]
  Activity: Active
Mus musculus [13]
  Activity: Active
Mus musculus [14]
  Activity: Active
[15]
  Cmax: 8.3 ng/mL
Mus musculus [16]
  inhibition: inactive
Mus musculus [17]
  inhibition: Active
Mus musculus [18]
  Activity: Active
Mus musculus [19]
  Activity: Active
Dipeptidyl peptidase 4
  IC50: 21.5 nM
Mus musculus [20]
  inhibition: Active
[21]
  solubility: > 100 µM
Mus musculus [22]
  inhibition: inactive
[23]
  Cmax: 11700 ng/mL
Mus musculus [24]
  Activity: Active
Mus musculus [25]
  Activity: Active
[26]
  Papp A→B at 1.583 h, 20 µM: 0.01 ×10⁻⁶ cm/s
Mus musculus [27]
  Activity: Active
Mus musculus [28]
  inhibition: Active
